The source made the active and inactive calls. The rule behind the calls is not given here.
What was measured:
Beta-secretase 1 = Beta-secretase 1 (Homo sapiens, UniProt P56817); assay: Inhibition of human recombinant BACE1 using M-2420 as substrate preincubated for 1 hr followed by substrate addition incubated for 15 mins by FRET assay
[1] = target: Glycogen synthase kinase-3 beta (Homo sapiens, UniProt P49841); assay: Inhibition of human recombinant GSK3-beta using prephosphorylated polypeptide as substrate incubated for 30 mins by Glo-type luminescence assay
Chain of Glycogen synthase kinase-3 beta (P49841 whole entry): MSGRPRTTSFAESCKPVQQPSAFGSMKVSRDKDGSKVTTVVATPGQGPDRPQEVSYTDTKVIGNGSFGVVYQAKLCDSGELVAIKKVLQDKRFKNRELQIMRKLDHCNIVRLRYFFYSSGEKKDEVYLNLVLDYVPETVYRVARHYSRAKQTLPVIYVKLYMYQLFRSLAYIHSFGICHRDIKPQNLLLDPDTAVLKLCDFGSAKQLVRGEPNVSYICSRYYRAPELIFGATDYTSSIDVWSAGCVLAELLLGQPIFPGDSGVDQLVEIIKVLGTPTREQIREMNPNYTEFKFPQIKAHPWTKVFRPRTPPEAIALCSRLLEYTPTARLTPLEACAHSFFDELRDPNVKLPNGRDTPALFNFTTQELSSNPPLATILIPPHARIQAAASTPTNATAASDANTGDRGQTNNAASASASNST

[2] = Permeability of the compound by PAMPA-BBB assay; format: ADME; settings: read-out: permeability
T67 [3] = assay: Neuroprotective effect in human T67 cells assessed as inhibition of TBH-induced ROS formation at 10 uM after 30 mins by DCFH-DA fluorescent probe-based spectrofluorimetric analysis; format: functional, cell-based
T67 [4] = assay: Neuroprotective effect in human T67 cells assessed as increase in NQO1 activity using DCIP as substrate; format: functional, cell-based
[5] = Cytotoxicity against human T67 cells at 10 uM after 24 hrs by MTT assay; format: cell-based; settings: t67, 24 h
[6] = Cytotoxicity against human T67 cells up to 20 uM after 24 hrs by MTT assay; format: cell-based; settings: t67, 24 h
[7] = Chemical stability of the compound in phosphate and borate buffer assessed as formation of degradation product at pH 7.4 and 9.2 incubated for 3 days by RP-HPLC analysis; format: physicochemical; settings: pH 7.4, 72 h
[8] = Cytotoxicity against human T67 cells at 20 uM after 24 hrs by MTT assay; format: cell-based; settings: t67, 24 h
[9] = Chemical stability of the compound in phosphate and borate buffer at pH 7.4 and 9.2 incubated for 3 days by RP-HPLC analysis; format: physicochemical; settings: pH 7.4, 72 h

Chain of Beta-secretase 1 (P56817 whole entry): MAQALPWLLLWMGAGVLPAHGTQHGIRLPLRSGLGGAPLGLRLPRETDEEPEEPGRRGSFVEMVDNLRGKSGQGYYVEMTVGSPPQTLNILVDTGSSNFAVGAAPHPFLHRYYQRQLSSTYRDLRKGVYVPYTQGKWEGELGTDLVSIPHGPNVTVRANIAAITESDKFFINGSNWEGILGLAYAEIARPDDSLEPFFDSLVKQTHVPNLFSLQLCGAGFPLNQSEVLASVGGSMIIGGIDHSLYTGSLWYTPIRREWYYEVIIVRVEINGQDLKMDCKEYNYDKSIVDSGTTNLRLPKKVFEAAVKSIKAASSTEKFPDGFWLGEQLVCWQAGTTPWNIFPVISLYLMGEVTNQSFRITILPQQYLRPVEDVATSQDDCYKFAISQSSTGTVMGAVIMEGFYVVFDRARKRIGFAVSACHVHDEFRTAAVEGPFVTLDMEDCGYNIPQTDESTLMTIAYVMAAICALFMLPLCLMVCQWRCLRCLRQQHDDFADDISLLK

Row | Compound | IC50 (Beta-secretase 1) [nM] | IC50 [1] [nM] | Papp [2] [×10⁻⁶ cm/s] | Activity (T67 [3]) | Activity (T67 [4]) | Activity [5] | Activity [6] | Stability [7] | Activity [8] | Stability [9]
1 | O=C(/C=C(O)/C=C/c1ccc(OCc2cccc(F)c2)cc1)/C=C/c1ccc(OCc2cccc(F)c2)cc1 | 1080 | 17000 |  |  |  |  |  |  |  | 
2 | O=C(/C=C(O)/C=C/c1ccc(OCc2ccc(F)cc2)cc1)/C=C/c1ccc(OCc2ccc(F)cc2)cc1 | 1040 | 12800 |  |  |  |  |  |  |  | 
3 | COc1ccc(/C=C/C(=O)/C=C(O)/C=C/c2ccc(OCc3ccccc3)cc2)cc1 | 2280 | 2780 | 7 | inactive | Active | Non-toxic | Non-toxic |  |  | 
4 | O=C(/C=C(O)/C=C/c1ccc(OCc2ccccc2)cc1)/C=C/c1ccc(O)cc1 | 2690 | 2010 |  | inactive | Active |  | Toxic |  |  | 
5 | O=C(/C=C/c1ccc(OCc2ccccc2)cc1)CC(=O)/C=C/c1ccc(OCc2ccccc2)cc1 | 6040 | 5560 |  |  |  |  |  |  |  | 
6 | COc1cc(/C=C/C(O)=C/C(=O)/C=C/c2ccc(C)cc2)ccc1O | 140 | 2090 | 8.2 | inactive | Active |  | Non-toxic |  |  | 
7 | COc1ccc(/C=C/C(=O)CC(=O)/C=C/c2ccc(OC)cc2)cc1 | > 5000 | 15300 |  |  |  |  |  | Unstable |  | 
8 | O=C(/C=C/c1ccc(OCc2ccc(F)cc2F)cc1)CC(=O)/C=C/c1ccc(OCc2ccc(F)cc2F)cc1 | 1000 | 9060 |  |  |  |  |  |  |  | 
9 | O=C(/C=C/c1ccc(OCc2cc(F)cc(F)c2)cc1)CC(=O)/C=C/c1ccc(OCc2cc(F)cc(F)c2)cc1 | 730 | 9660 |  |  |  |  |  |  |  | 
10 | O=C(/C=C(O)/C=C/c1ccc(OCc2ccccc2)cc1)/C=C/c1ccc(OCc2ccccc2)cc1 | 40 | 2490 | 3.6 | Active | Active |  | Non-toxic |  |  | 
11 | O=C(/C=C(O)/C=C/c1ccc(O)cc1)/C=C/c1ccc(O)cc1 |  | 8390 | 7.8 | inactive | Active | Non-toxic |  |  | Toxic | 
12 | O=C(/C=C(O)/C=C/c1ccc(OCc2ccc(F)cc2F)cc1)/C=C/c1ccc(OCc2ccc(F)cc2F)cc1 | 400 | 9630 |  |  |  |  |  |  |  | 
13 | COc1cc(/C=C/C(=O)CC(=O)/C=C/c2ccc(O)c(OC)c2)ccc1O [CURCUMIN] |  | 17900 | 2.5 |  | Active |  | Non-toxic |  |  | 
14 | COc1cc(/C=C/C(O)=C/C(=O)/C=C/c2ccc(OCc3ccccc3)cc2)ccc1O | 970 | 900 | 7.7 | Active | Active |  | Non-toxic |  |  | 
15 | O=C(/C=C(O)/C=C/c1ccc(OCc2cc(F)cc(F)c2)cc1)/C=C/c1ccc(OCc2cc(F)cc(F)c2)cc1 | 390 | 8300 |  |  |  |  |  |  |  | 
16 | COc1ccc(/C=C/C(=O)/C=C(O)/C=C/c2ccc(OC)cc2)cc1 | 1650 | 530 | 2.8 | inactive | Active | Non-toxic |  |  |  | Stable

Reference: ChEMBL document CHEMBL3763057 (J Med Chem, 2016)
